{
  "source": "patent US7608242B2",
  "about": "“Peptide-chelate conjugates” (GE Healthcare Limited, priority 2001, dated 2009)",
  "key": {"[1]": {"target": "T1, ST receptor (rat intestinal membrane) (Rattus norvegicus, UniProt P23897)", "T1 construct": "in 96 well plates containing ca. 1 μg rat intestinal membrane; from tissue; host or cells: rat intestinal membrane", "T1 sequence (P23897 23-1072)": "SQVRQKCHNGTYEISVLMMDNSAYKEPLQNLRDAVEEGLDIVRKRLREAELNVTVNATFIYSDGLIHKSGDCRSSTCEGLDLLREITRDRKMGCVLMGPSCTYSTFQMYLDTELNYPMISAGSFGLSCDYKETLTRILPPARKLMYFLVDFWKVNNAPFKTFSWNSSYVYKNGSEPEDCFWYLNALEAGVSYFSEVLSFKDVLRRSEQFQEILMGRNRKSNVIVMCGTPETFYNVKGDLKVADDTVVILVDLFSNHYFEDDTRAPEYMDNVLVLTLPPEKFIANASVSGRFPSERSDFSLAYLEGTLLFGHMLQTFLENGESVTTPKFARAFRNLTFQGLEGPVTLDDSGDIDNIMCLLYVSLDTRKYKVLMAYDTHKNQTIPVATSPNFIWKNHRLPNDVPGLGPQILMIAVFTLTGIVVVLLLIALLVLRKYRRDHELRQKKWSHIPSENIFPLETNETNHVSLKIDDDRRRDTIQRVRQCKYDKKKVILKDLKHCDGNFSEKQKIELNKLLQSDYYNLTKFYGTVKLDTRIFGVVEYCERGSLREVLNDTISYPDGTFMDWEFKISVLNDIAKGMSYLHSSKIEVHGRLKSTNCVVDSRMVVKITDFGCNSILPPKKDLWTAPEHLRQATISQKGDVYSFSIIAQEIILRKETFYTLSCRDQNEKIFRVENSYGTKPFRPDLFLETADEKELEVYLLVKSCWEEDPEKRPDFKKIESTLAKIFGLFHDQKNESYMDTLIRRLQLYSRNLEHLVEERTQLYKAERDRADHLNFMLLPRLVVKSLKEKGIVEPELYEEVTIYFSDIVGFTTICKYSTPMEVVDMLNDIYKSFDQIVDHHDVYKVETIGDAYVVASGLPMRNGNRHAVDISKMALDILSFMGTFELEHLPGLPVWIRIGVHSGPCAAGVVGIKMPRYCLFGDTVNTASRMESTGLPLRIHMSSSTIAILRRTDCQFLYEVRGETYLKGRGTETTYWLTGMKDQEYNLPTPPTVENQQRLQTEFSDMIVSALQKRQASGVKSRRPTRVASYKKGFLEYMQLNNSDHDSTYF", "experiment": "Radioactive binding assay of HPLC purified radiolabelled compounds", "settings": "ca. 0.05 nM radiolabelled compound, 6 μg rat intestinal membrane, one hour", "method": "To determine whether radiolabelling affected the binding of the compound, labelled compounds were tested for their ability to bind the receptor. Briefly HPLC purified radiolabelled compounds (ca. 0.05 nM) were incubated with 6 μg/150 μl final volume of rat intestinal membrane (one hour), in the presence and absence of competing peptide (50 μM ST5-18). Samples were filtered (GF/B filters, Whatman) to retrieve bound radiolabelled peptide and counted to determine % Bound/Free. Non-specific binding accounted for less than 1% in all cases.\nIn order to ensure that potency was maintained post-labelling, an assay measuring binding of labelled compounds was developed."}, "[2]": {"test_system": "sub-cutaneous T84 tumours (T84 human colon carcinoma cells)", "experiment": "Biodistribution in a subcutaneous tumour model", "format": "in vivo, mouse", "settings": "60 min p.i.", "method": "The sub-cutaneous model was used as an appropriate initial in vivo screen. Briefly, mice (female nude CD-1, ca. 20 g; Charles River) were injected sub-cutaneously into the neck with T84 human colon carcinoma cells (0.1 ml, 1×10^8 cells/ml in medium) through a 23-gauge needle and allowed to develop tumours over 6-8 weeks.\nAt least three animals per test point were studied. Results are expressed as % injected dose per gram (% ID/g) of tissue.\nCompounds were screened for their uptake into sub-cutaneous T84 tumours in the mouse (Table IV). This model allows assessment of the imageability of CA1-ST5-18 by allowing comparison between tumour and background tissue uptake."}, "[3]": {"test_system": "T84 tumours subcutaneously", "experiment": "Imaging in the subcutaneous tumour model (planar gamma camera)", "format": "in vivo, mouse", "settings": "HPLC purified, 20 MBq per animal", "method": "Tumour to liver ratios were; 1.1 at 15 minutes, 2 at 60 minutes and 4 at 120 minutes.\nTumours were grown as in Example 17. Animals were monitored for tumour growth for 8 to 10 weeks, until tumours were 0.5-1 cm in size. After this time, animals were injected with test article (0.1 ml, 20 MBq/ml or 200 MBq/ml) as an intravenous bolus via the tail vein. At various times p.i. animals were euthanased and whole body planar images acquired between 5 minutes and 24 hours p.i. using a gamma camera (Park Medical Isocam-1). Image acquisition times were typically 15-30 min or 150-250K counts (whole body, LEUHR collimator)."}, "T84 liver tumours": {"test_system": "T84 liver tumours", "experiment": "Imaging in liver metastases model", "format": "in vivo, rat", "settings": "image of Example 21 (FIG. 8)", "method": "The image is a whole body image with background counts removed and kidneys masked. Image tumour:liver ratio was typically 2.5.\nThe liver metastases model was used in both mice and rats. As for the subcutaneous tumour model except in establishing tumours, cells were injected via the spleen and allowed to transfer to the liver via the circulation. Two minutes after injection of cells, a splenectomy was performed. Animals were allowed to generate tumours over 6-8 weeks.\nTumours were grown in animal as described in Example 20. Animals were monitored for tumour growth for 8 to 10 weeks, until tumours were 0.5-1 cm in size. After this time, animals were injected with test article (0.1 ml, 200 MBq/ml) as an intravenous bolus via the tail vein. At various times p.i. animals were euthanased and whole body planar images acquired between 5 minutes and 24 hours p.i. using a gamma camera (Park Medical Isocam-1). Image acquisition times were typically 15-30 min or 150-250K counts (whole body, LEUHR collimator). […] The image has the kidneys masked to improve the resolution of the imaged metastases."}, "[4]": {"test_system": "sub-cutaneous T84 tumours", "experiment": "Uptake of labelled conjugate and negative control into CRC tumours", "format": "in vivo, mouse", "settings": "CD-1 nude mice bearing s.c. T84 tumours"}, "[5]": {"target": "T1, ST receptor (rat intestinal membrane)", "experiment": "Competition binding assay against [125I]ST1-17", "method": "Compounds were assessed for their potency by radioligand binding assay to determine inhibition constant (Ki) as a measure of potency of binding. Methods are described elsewhere, but briefly, [^125I]ST1-17 was competed with cold ST compounds (0.0001-50 μM) in 96 well plates containing ca. 1 μg rat intestinal membrane and incubated 1 hr, 37° C. Samples were filtered (GF/B filters, Whatman) to retrieve bound radiolabelled peptide and counted to determine % Bound/Free.\nPotency of compounds was determined by inhibition constant (Ki) for their ability to compete with radioligand, [^125I]ST1-17."}, "[6]": {"settings": "Mean Ki value (nM), competition with [125I]ST1-17, ca. 1 μg rat intestinal membrane, 1 hr, 37° C., means of triplicate wells"}},
  "note": "Ends that are not written are not given here. Peptide text beside a SMILES is read from it. * marks the point of attachment. X1 = CCOC(C)SCC(=O)NC(CCCC(=O)*)C(=O)NCC(=O)NCC(=O)O",
  "data": [
    {"compound": "99mTc-labelled CA1-ST5-18: CA1-ST5-18 peptide-chelate conjugate radiolabelled with 99mTc (CCELCCNPACAGCY; disulfide (positions not given here); not fully specified (N-terminus); ends not checked; also: 99mTc label chelated by CA1, three disulfides, pairing not given here)", "values": [
      {"measurement": "binding, % of added radioactive material", "setting": "[1]", "value": 6, "unit": "%"},
      {"measurement": "excreted / cleared via urine", "setting": "[2]", "value": "greater than 90%"},
      {"measurement": "Tumour to liver ratio (image)", "setting": "[3]; 15 minutes", "value": 1.1},
      {"measurement": "Tumour to liver ratio (image)", "setting": "[3]; 60 minutes", "value": 2},
      {"measurement": "Tumour to liver ratio (image)", "setting": "[3]; 120 minutes", "value": 4},
      {"measurement": "tumour:liver ratio based on ROI analysis", "setting": "T84 liver tumours", "value": "1.5-3.0"},
      {"measurement": "uptake into tumour (FIG. 5)", "setting": "[4]", "value": "good uptake"}
    ]},
    {"compound": "C/C(=N/O)C(C)(C)NCCN(CCNC(=O)CCC(=O)N[C@H]1CSSC[C@@H]2NC(=O)[C@@H]3CSSC[C@@H](C(=O)N[C@@H](Cc4ccc(O)cc4)C(=O)O)NC(=O)CNC(=O)[C@H](C)NC(=O)[C@H](CSSC[C@H](NC1=O)C(=O)N[C@@H](CCC(=O)O)C(=O)N[C@@H](CC(C)C)C(=O)N3)NC(=O)[C@H](C)NC(=O)[C@@H]1CCCN1C(=O)[C@H](CC(N)=O)NC2=O)CCNC(C)(C)/C(C)=N\\O", "note": "[CA1-ST5-18]", "values": [
      {"measurement": "Ki", "setting": "[5]; [6]", "value": 2.8, "unit": "nM"},
      {"measurement": "Ki", "setting": "[5]; Mean Ki value (nM), mock-labelled (subjected to the radiolabelling protocol in the absence of radiometal)", "value": 3.5, "unit": "nM"}
    ]},
    {"compound": "C/C(=N/O)C(C)(C)NCCN(CCNC(=O)CCC(=O)NCC(=O)NCC(=O)NCC(=O)NC(CCC(=O)O)C(=O)NC(CCC(=O)O)C(=O)NC(CCC(=O)O)C(=O)N[C@H]1CSSC[C@@H]2NC(=O)[C@@H]3CSSC[C@@H](C(=O)N[C@@H](Cc4ccc(O)cc4)C(=O)O)NC(=O)CNC(=O)[C@H](C)NC(=O)[C@H](CSSC[C@H](NC1=O)C(=O)N[C@@H](CCC(=O)O)C(=O)N[C@@H](CC(C)C)C(=O)N3)NC(=O)[C@H](C)NC(=O)[C@@H]1CCCN1C(=O)[C@H](CC(N)=O)NC2=O)CCNC(C)(C)/C(C)=N\\O", "note": "(some centres unmarked) [CA1-gly3-Dglu3-ST5-18]", "values": [
      {"measurement": "Ki", "setting": "[5]; Ki, competition binding", "value": 1, "unit": "nM"}
    ]},
    {"compound": "CCOC(C)SCC(=O)NC(CCCC(=O)N[C@@H](C)C(=O)N[C@@H](C)C(=O)N[C@@H](CCC(=O)O)C(=O)N[C@@H](CC(C)C)C(=O)N[C@@H](C)C(=O)N[C@@H](C)C(=O)N[C@@H](CC(N)=O)C(=O)N1CCC[C@H]1C(=O)N[C@@H](C)C(=O)N[C@@H](C)C(=O)N[C@@H](C)C(=O)NCC(=O)N[C@@H](C)C(=O)N[C@@H](Cc1ccc(O)cc1)C(=O)O)C(=O)NCC(=O)NCC(=O)O", "note": "(some centres unmarked) [CA3-ST5-18(cys-ala), reference compound] (X1-AAELAANPAAAGAY-OH)", "values": [
      {"measurement": "Ki value (nM)", "setting": "[5]; Table IV screening data", "value": "none"},
      {"measurement": "Ki", "setting": "[5]; competition binding", "value": "no binding"},
      {"measurement": "Mean Ki value (nM)", "setting": "[5]; competition with [125I]ST1-17, ca. 1 μg rat intestinal membrane, 1 hr, 37° C., means of triplicate wells", "value": "none"}
    ]},
    {"compound": "CCOC(C)SCC(=O)NC(CCCC(=O)N[C@H]1CSSC[C@@H]2NC(=O)[C@@H]3CSSC[C@@H](C(=O)N[C@@H](Cc4ccc(O)cc4)C(=O)O)NC(=O)CNC(=O)[C@H](C)NC(=O)[C@H](CSSC[C@H](NC1=O)C(=O)N[C@@H](CCC(=O)O)C(=O)N[C@@H](CC(C)C)C(=O)N3)NC(=O)[C@H](C)NC(=O)[C@@H]1CCCN1C(=O)[C@H](CC(N)=O)NC2=O)C(=O)NCC(=O)NCC(=O)O", "note": "(some centres unmarked) [CA3-ST5-18]", "values": [
      {"measurement": "Ki", "setting": "[5]; Ki value (nM), Table IV screening data", "value": 0.8, "unit": "nM"},
      {"measurement": "Ki", "setting": "[5]; Ki, competition binding", "value": 0.8, "unit": "nM"},
      {"measurement": "Ki", "setting": "[5]; [6]", "value": 0.8, "unit": "nM"}
    ]},
    {"compound": "CC(C)C[C@@H]1NC(=O)[C@H](CCC(=O)O)NC(=O)[C@@H]2CSSC[C@@H]3NC(=O)[C@H](C)NC(=O)[C@@H]4CCCN4C(=O)[C@H](CC(N)=O)NC(=O)[C@H](CSSC[C@H](N)C(=O)N2)NC(=O)[C@H](CSSC[C@@H](C(=O)N[C@@H](Cc2ccc(O)cc2)C(=O)O)NC(=O)CNC(=O)[C@H](C)NC3=O)NC1=O", "note": "[ST5-18]", "values": [
      {"measurement": "Ki", "setting": "[5]; Ki, competition binding", "value": 0.4, "unit": "nM"}
    ]}
  ]
}
